Measurements taken from article PMC3071876 (Comparative biochemistry and physiology. Part B, …, 2011).
Like-named read-outs stand apart in the source and are kept apart here.

Legend:
[1] = target: T1, zebrafish monoamine oxidase (zMAO) (Danio rerio, UniProt Q6NSN2); assay: Steady-state kinetics of zMAO-catalyzed amine substrate oxidation; type: biochemical; conditions: for ^Dkcat: deuterium kinetic isotope effect; for kcat (H): air saturation (240 μM O2); for kcat (D): α,α-2[H] benzylamine analogue
T1 sequence (Q6NSN2 1-522): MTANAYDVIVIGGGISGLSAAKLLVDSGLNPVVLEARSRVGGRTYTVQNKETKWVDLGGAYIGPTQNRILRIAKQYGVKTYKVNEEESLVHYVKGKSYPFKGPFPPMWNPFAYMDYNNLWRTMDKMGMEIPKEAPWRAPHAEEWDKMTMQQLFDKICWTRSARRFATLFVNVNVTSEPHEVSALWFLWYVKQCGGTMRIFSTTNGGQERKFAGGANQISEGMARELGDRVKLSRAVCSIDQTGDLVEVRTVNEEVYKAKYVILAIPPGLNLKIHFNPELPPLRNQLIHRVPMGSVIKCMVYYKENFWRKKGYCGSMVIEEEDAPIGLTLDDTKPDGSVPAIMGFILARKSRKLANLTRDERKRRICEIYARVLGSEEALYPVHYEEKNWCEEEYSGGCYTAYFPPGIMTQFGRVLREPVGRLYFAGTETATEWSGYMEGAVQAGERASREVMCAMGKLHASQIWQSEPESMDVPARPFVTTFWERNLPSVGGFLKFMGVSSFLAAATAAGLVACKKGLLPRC

hMAO A [2] = target: T2, hMAO A (Homo sapiens, UniProt P21397); conditions: ref Li, cited from earlier work
T2 sequence (P21397 1-527): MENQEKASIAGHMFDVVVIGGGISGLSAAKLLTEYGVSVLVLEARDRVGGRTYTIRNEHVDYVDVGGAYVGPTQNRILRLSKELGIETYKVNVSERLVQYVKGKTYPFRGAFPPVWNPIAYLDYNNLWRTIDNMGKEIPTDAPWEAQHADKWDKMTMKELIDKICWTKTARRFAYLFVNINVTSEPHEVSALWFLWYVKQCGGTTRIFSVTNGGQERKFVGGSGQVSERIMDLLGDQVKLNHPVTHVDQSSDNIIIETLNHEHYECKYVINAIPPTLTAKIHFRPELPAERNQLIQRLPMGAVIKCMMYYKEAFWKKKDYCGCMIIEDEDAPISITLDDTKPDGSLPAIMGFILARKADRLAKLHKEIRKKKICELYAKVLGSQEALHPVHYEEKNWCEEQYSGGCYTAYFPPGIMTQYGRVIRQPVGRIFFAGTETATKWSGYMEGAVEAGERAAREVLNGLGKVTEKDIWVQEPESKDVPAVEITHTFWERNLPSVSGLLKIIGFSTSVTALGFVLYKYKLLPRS

hMAO B [3] = target: T3, hMAO B (Homo sapiens, UniProt P27338); conditions: cited from earlier work
T3 sequence (P27338 1-520): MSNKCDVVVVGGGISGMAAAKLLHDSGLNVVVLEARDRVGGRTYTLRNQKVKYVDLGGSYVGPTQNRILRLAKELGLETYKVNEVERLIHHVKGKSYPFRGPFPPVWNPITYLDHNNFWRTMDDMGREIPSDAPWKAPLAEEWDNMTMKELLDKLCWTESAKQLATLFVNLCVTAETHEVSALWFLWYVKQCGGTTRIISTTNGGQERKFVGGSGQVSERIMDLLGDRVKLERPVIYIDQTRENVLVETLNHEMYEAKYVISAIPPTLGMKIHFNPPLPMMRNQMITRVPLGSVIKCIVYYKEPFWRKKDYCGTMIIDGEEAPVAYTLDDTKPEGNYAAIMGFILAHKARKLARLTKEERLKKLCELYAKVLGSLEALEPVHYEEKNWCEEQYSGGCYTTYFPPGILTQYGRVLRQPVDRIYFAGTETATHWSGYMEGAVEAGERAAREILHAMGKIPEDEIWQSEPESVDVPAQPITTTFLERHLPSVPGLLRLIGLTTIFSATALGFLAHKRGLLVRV

hMAO A [4] = target: T2, hMAO A; conditions: cited from earlier work; for Ki: hMAO A
hMAO B [5] = target: T3, hMAO B; conditions: cited from earlier work; remark: listed apart in the source
[6] = target: T1, zebrafish monoamine oxidase (zMAO); assay: Reversible inhibition of zMAO with kynuramine as substrate; type: biochemical
hMAO B [7] = target: T3, hMAO B; assay: Reversible inhibition of hMAO B; type: biochemical; conditions: no reference mark, indole analogues tested up to 100 μM
[8] = substrate: NCCc1ccc(O)c(O)c1; assay: purified protein, by the assay type; conditions: other: zMAO, 25 °C, pH 7.4
[9] = substrate: NCCc1ccc(O)cc1; assay: Steady-state kinetics of zMAO-catalyzed amine substrate oxidation; type: biochemical, Danio rerio; conditions: other: zMAO, 25 °C, pH 7.4
[10] = substrate: NCCC(=O)c1ccccc1N; assay: as above; type: biochemical, Danio rerio; conditions: other: zMAO, 25 °C, pH 7.4
[11] = substrate: NCc1ccccc1; assay: as above; type: biochemical, Danio rerio; conditions: other: zMAO, para-substituted benzylamine; pH 7.4; 25.0 °C
[12] = substrate: NCCCCc1ccccc1; assay: as above; type: biochemical, Danio rerio; conditions: other: zMAO, 25 °C, pH 7.4
[13] = read-out: Km(H), zMAO, para-substituted benzylamine
[14] = zMAO, para-substituted benzylamine
[15] = ref Nandigama and Edmondson (2000)
[16] = zMAO, hMAO A specific inhibitors (Table 2), kynuramine substrate
[17] = zMAO, hMAO B specific inhibitors (Table 3), kynuramine substrate

NCc1ccc(Br)cc1 [p-Br]
Km [1, 13]: 103 ± 20 µM
^Dkcat ([1]; zMAO): 8.2 ± 0.7 min⁻¹
kcat (H) [1, 14]: 0.667 ± 0.05 s⁻¹
kcat (D) ([1]; zMAO): 0.0813 ± 0.00283 s⁻¹

NCc1ccc(C(F)(F)F)cc1 [p-CF3]
Km [1, 13]: 115 ± 36 µM
^Dkcat ([1]; zMAO): 4.2 ± 0.3 min⁻¹
kcat (H) [1, 14]: 1.57 ± 0.12 s⁻¹
kcat (D) ([1]; zMAO): 0.375 ± 0.025 s⁻¹

NCCc1c[nH]c2ccc(O)cc12 [Serotonin]
Km (hMAO A [2]; et al. (2002)): 295 ± 46 µM
Km (hMAO B [3]; [15]): 2270 ± 310 µM

C[C@H](N)Cc1ccccc1 [d-Amphetamine]
Mode of inhibition (hMAO A [4]; human MAO A, ref Vintém et al., 2005): competitively inhibits
Ki (hMAO B [5]; hMAO B, ref Li, (2006)): 280 ± 10 µM
Mode of inhibition (hMAO B [5]; human MAO B, depending on the substrate, ref Pearce and Roth, 1985): either as a competitive or as a mixed inhibitor
Mode of inhibition ([6]; zMAO catalyzed kynuramine oxidation): uncompetitive inhibitor
Ki [6, 16]: 38 ± 5.1 µM

COc1ccc(CN)cc1 [p-MeO]
Km [1, 13]: 55.5 ± 4.1 µM
^Dkcat ([1]; zMAO): 5.9 ± 0.7 min⁻¹
kcat (H) [1, 14]: 0.138 ± 0.012 s⁻¹
kcat (D) ([1]; zMAO): 0.0237 ± 0.00083 s⁻¹

CC(C)(C)c1ccc(CN)cc1 [p-t-Butyl]
Km [1, 13]: 48 ± 6 µM
^Dkcat ([1]; zMAO): 2.0 ± 0.1 min⁻¹
kcat (H) [1, 14]: 0.115 ± 0.0033 s⁻¹
kcat (D) ([1]; zMAO): 0.0567 ± 0.0033 s⁻¹

C[C@H](NCc1ccc(OCc2cccc(F)c2)cc1)C(N)=O [Safinamide]
Ki [6, 17]: No inhibition

NCc1ccc(Cl)cc1 [p-CI]
Km [1, 13]: 94 ± 10 µM
^Dkcat ([1]; zMAO): 5.9 ± .2 min⁻¹
kcat (H) [1, 14]: 0.583 ± 0.017 s⁻¹
kcat (D) ([1]; zMAO): 0.0983 ± 0.00283 s⁻¹

NCc1ccccc1 [p-H, benzylamine]
Kd [1]: 3.3 µM
^Dkcat ([1]; zMAO): 2.0 ± 0.2 min⁻¹
kcat (D) ([1]; zMAO): 0.039 ± 0.00333 s⁻¹

CS(=O)(=O)O.c1cc2c(cc1C1CCCCC1)c1c3n2CCNC3CCC1 (stereo not drawn) [Tetrindole Mesylate]
Ki (hMAO A [4]; ref Wang, et al. (2009)): 5.3 ± 0.2 µM
Ki (hMAO B [7]): No Inhibition
Ki [6, 16]: 34.1 ± 2 µM

NCCc1ccc(O)c(O)c1 [Dopamine]
Km (hMAO A [2]; et al. (2002)): 240 ± 42 µM
kcat (hMAO A [2]; et al. (2002)): 71 ±4 ^a min^−1
Km (hMAO B [3]; [15]): 128 ± 15 µM
kcat (hMAO B [3]; [15]): 65 ±12 ^b min^−1
kcat ([1]; zMAO, 25 °C, pH 7.4): 4.03 s⁻¹

Cc1ccc(CN)cc1 [p-Me]
Km [1, 13]: 67.8 ± 4.1 µM
^Dkcat ([1]; zMAO): 6.4 ± 0.2 min⁻¹
kcat (H) [1, 14]: 0.115 ± 0.0017 s⁻¹
kcat (D) ([1]; zMAO): 0.018 ± 0.00033 s⁻¹

NCc1cccnc1 [3-Aminomethylpyridine]
Ki (hMAO A [4]; competitive inhibitor, ref Li, (2006)): 5200 µM
kcat (hMAO B [3]; ref Li, (2006)): 223 ±5 ^c min^−1
Substrate behaviour ([1]; zMAO): Not a Substrate

NCc1ccc(F)cc1 [p-F]
Km [1, 13]: 161 ± 8 µM
^Dkcat ([1]; zMAO): 6.7 ± 0.2 min⁻¹
kcat (H) [1, 14]: 0.248 ± 0.005 s⁻¹
kcat (D) ([1]; zMAO): 0.0372 ± 0.00083 s⁻¹

NCCC(=O)c1ccccc1N [Kynuramine]
kcat (hMAO A [2]; et al. (2002)): 125 ±8 ^a min^−1
kcat (hMAO B [3]; [15]): 96 ±11 ^b min^−1
kcat ([1]; zMAO, 25 °C, pH 7.4): 1.25 s⁻¹

Cc1nccc2c1[nH]c1ccccc12 [Harmane]
Ki [6]: 0.13 ± 0.02 µM

NCCc1ccc(O)cc1 [Tyramine]
kcat (hMAO A [2]; (2006), listed as tyramine): 182 min⁻¹
Km (hMAO A [2]; (2006)): 427 ± 18 µM
kcat (hMAO A [2]; (2006)): 182 ±26 ^c min^−1
kcat ([1]; zMAO, 25 °C, pH 7.4): 7.78 s⁻¹

NCc1ccc(C(=O)O)cc1 [p-Carboxybenzylamine]
Km ([1]; zMAO, 25 °C, pH 7.4): 76 ± 8 µM
kcat ([1]; zMAO, 25 °C, pH 7.4): 0.0883 ± 0.0033 s⁻¹

C(C=Cc1ccccc1)=Cc1ccccc1 [1,4-Diphenyl-1,3-Butadiene]
Ki [6, 17]: No inhibition

C(=CCc1ccccc1)Cc1ccccc1 [1,4-Diphenyl-2-Butene]
Ki [6, 17]: No inhibition

CS(=O)(=O)O.Cc1ccc2c(c1)c1c3n2CCNC3CCC1 (stereo not drawn) [Pirlindole Mesylate]
Ki (hMAO A [4]; ref Wang, et al. (2009)): 0.92 ± 0.04 µM
Ki (hMAO B [7]): No Inhibition
Ki [6, 16]: 2.4 ± 0.4 µM

Cn1c(=O)c2c(nc(C=Cc3cccc(Cl)c3)n2C)n(C)c1=O [8-(3-Chlorostyryl)-caffeine]
Ki [6]: 2.4 ± 0.6 µM

CC(C)=CCC/C(C)=C/CC/C(C)=C/CO [Farnesol, trans-trans-farnesol]
Ki [6, 17]: No inhibition

B1: zebrafish monoamine oxidase (zMAO) (Danio rerio) (protein)
chain: MTANAYDVIVIGGGISGLSAAKLLVDSGLNPVVLEARSRVGGRTYTVQNKETKWVDLGGAYIGPTQNRILRIAKQYGVKTYKVNEEESLVHYVKGKSYPFKGPFPPMWNPFAYMDYNNLWRTMDKMGMEIPKEAPWRAPHAEEWDKMTMQQLFDKICWTRSARRFATLFVNVNVTSEPHEVSALWFLWYVKQCGGTMRIFSTTNGGQERKFAGGANQISEGMARELGDRVKLSRAVCSIDQTGDLVEVRTVNEEVYKAKYVILAIPPGLNLKIHFNPELPPLRNQLIHRVPMGSVIKCMVYYKENFWRKKGYCGSMVIEEEDAPIGLTLDDTKPDGSVPAIMGFILARKSRKLANLTRDERKRRICEIYARVLGSEEALYPVHYEEKNWCEEEYSGGCYTAYFPPGIMTQFGRVLREPVGRLYFAGTETATEWSGYMEGAVQAGERASREVMCAMGKLHASQIWQSEPESMDVPARPFVTTFWERNLPSVGGFLKFMGVSSFLAAATAAGLVACKKGLLPRC
Km [8]: 88 ± 14 µM
kcat [8]: 4.03 s⁻¹
Km [9]: 18 ± 3 µM
kcat [9]: 7.78 ± 0.333 s⁻¹
Km [10]: 58 ± 5 µM
kcat [10]: 1.25 ± 0.0333 s⁻¹
Km [11]: 82.2 ± 9.0 µM
kcat [11]: 0.0783 ± 0.0017 s⁻¹
Km [12]: 185 ± 17 µM
kcat [12]: 2.07 ± 0.0667 s⁻¹
kcat/Km [12]: 11200 M⁻¹ s⁻¹
